Results reported in patent US20030171377A1, “Antidiabetic agents” (priority 2001, published 2003).

First: Cc1sc(-c2ccccc2)nc1CCOc1ccc(C[C@@H](C(=O)O)n2cccc2)cc1 [Example 18, (S)-3-{4-[2-(5-Methyl-2-phenyl-thiazol-4-yl)-ethoxy]-phenyl}-2-pyrrol-1-yl-propionic acid]
Second: Cc1oc(-c2ccccc2)nc1CCC(=O)c1ccc(C[C@@H](C(=O)O)n2cccc2)cc1 (stereo in doubt) [Example 31, 3-{4-[3-(5-Methyl-2-phenyl-oxazol-4-yl)-propionyl]-phenyl}-2-pyrrol-1-yl-propionic acid]
The melting point of the first is higher: 157 to 158 °C for the first, 90 to 92 °C for the second.

First: CC(C(=O)O)n1ccc2c(OCc3ccccc3)cccc21 (stereo not drawn) [Example 60, 2-(4-Benzyloxy-indol-1-yl)-propionic acid]
Second: Cc1oc(-c2ccccc2)nc1CCOc1cccc2c1ccn2C(C)C(=O)O (stereo not drawn) [Example 65, 2-(4-[2-(5-Methyl-2-phenyl-oxazol-4-yl)-ethoxy]-indol-1-yl)-propionic acid]
The melting point of the first is lower: 143 to 146 °C for the first, 157 to 159 °C for the second.

Compared with `Cc1cc(C(Cc2ccc(CCCc3nc(-c4ccccc4)oc3C)cc2)C(=O)O)on1` (stereo not drawn) [Example 104, 2-(3-Methyl-isoxazol-5-yl)-3-{4-[3-(5-methyl-2-phenyl-oxazol-4-yl)-propyl]-phenyl}-propionic acid], `Cc1oc(-c2ccccc2)nc1CCCc1ccc(CC(C(=O)O)n2cncn2)cc1` (stereo not drawn) [Example 94] is higher in melting point: 133 to 135 °C for the first, 169 to 171 °C for the second.

First: CC(=O)c1cccn1[C@@H](Cc1ccc(OCCc2nc(-c3ccccc3)oc2C)cc1)C(=O)O [Example 14, (S)-2-(2-Acetyl-pyrrol-1-yl)-3-{4-[2-(5-methyl-2-phenyl-oxazol-4-yl)-ethoxy]-phenyl}-propionic acid]
Second: Cc1oc(-c2ccccc2)nc1CCOc1ccc(C[C@@H](C(=O)O)c2cccs2)cc1 (stereo in doubt) (hydrate or solvate) [Example 32, 3-{4-[2-(5-Methyl-2-phenyl-oxazol-4-yl)-ethoxy]-phenyl}-2-thiophen-2-yl-propionic acid]
The melting point of the first is lower: 110 to 112 °C for the first, 146 to 147 °C for the second.

Compared with `Cc1oc(-c2ccccc2)nc1CCOc1ccc(C[C@@H](C(=O)O)n2ccc(-c3ccccc3)c2)cc1` [Example 4, (S)-3-{4-[2-(5-Methyl-2-phenyl-oxazol-4-yl)-ethoxy]-phenyl}-2-(3-phenyl-pyrrol-1-yl)-propionic acid], `Cc1oc(-c2ccccc2)nc1CCOc1ccc(C[C@@H](C(=O)O)c2ccccc2)cc1` [Example 36, 3-{4-[2-(5-Methyl-2-phenyl-oxazol-4-yl)-ethoxy]-phenyl}-2-phenyl-propionic acid (R)] is lower in melting point: 146 to 147 °C for the first, 124.1 to 125 °C for the second.

Compared with `CCc1nnc(C(Cc2ccc(OCCc3nc(-c4ccccc4)oc3C)cc2)c2ccccc2)o1` (stereo not drawn) [Example 43, 2-Ethyl-5-(2-{4-[2-(5-methyl-2-phenyl-oxazol-4-yl)-ethoxy]-phenyl}-1-phenyl-ethyl)-1,3,4-oxadiazole], `Cc1oc(-c2ccccc2)nc1CCOc1ccc(CC(C)(C(=O)O)c2ccccc2)cc1` (stereo not drawn) [Example 39, 2-Methyl-3-{4-[2-(5-methyl-2-phenyl-oxazol-4-yl)-ethoxy]-phenyl}-2-phenyl-propionic acid] is higher in melting point: 110 °C for the first, 178 to 179 °C for the second.

First: Cc1oc(-c2ccccc2)nc1CCOc1ccc(CC(C)(C)C(=O)NS(C)(=O)=O)cc1 [Example 75, N-(2,2-Dimethyl-3-{4-[2-(5-methyl-2-phenyl-oxazol-4-yl)-ethoxy]-phenyl}-propionyl)-methanesulfonamide]
Second: Cc1oc(-c2ccccc2)nc1CCOc1ccc(CC(F)(C(=O)NS(C)(=O)=O)c2ccccc2)cc1 (stereo not drawn) [Example 76, N-(2-Fluoro-3-{4-[2-(5-methyl-2-phenyl-oxazol-4-yl)-ethoxy]-phenyl}-2-phenyl-propionyl)-methanesulfonamide]
The melting point of the first is lower: 112 to 113 °C for the first, 118 to 120 °C for the second.

First: O=C(O)[C@H](Cc1ccc(/C=C/CN2CCC(c3ccccc3)CC2)cc1)n1cccc1 [Example 129d, (S)-3-{4-[(E)-3-(4-Phenyl-piperidin-1-yl)-propenyl]-phenyl}-2-pyrrol-1-yl-propionic acid]
Second: O=C(O)[C@H](Cc1ccc(C#CCN2CCC(c3ccccc3)CC2)cc1)n1cccc1 [Example 121c, (S)-3-{4-[3-(4-Phenyl-piperidin-1-yl)-prop-1-ynyl]-phenyl}-2-pyrrol-1-yl-propionic acid]
The melting point of the first is lower: 126 to 130 °C for the first, 201 to 203 °C for the second.

Compared with `O=C(O)[C@H](Cc1ccc(OCCn2c(-c3ccccc3)nc3ccccc32)cc1)n1cccc1` (stereo in doubt) [Example 23, 3-{4-[2-(2-Phenyl-benzimidazol-1-yl)-ethoxy]-phenyl}-2-pyrrol-1-yl-propionic acid], `Cc1oc(-c2ccccc2)nc1CCC(=O)c1ccc(CC(C(=O)O)n2cccc2)cc1` (stereo not drawn) [Example 44, 3-{4-[3-(5-Methyl-2-phenyl-oxazol-4-yl)-propionyl]-phenyl}-2-pyrrol-1-yl-propionic acid] is lower in melting point: 210 to 212 °C for the first, 90 to 92 °C for the second.

Compared with `CC(=O)N(CCc1nc(-c2ccccc2)oc1C)Cc1ccc(C[C@@H](C(=O)O)n2cccc2)cc1` [Example 111, (S)-3-[4-({Acetyl-[2-(5-methyl-2-phenyl-oxazol-4-yl)-ethyl]-amino}-methyl)-phenyl]-2-pyrrol-1-yl-propionic acid], `Cc1oc(-c2ccccc2)nc1CCOc1cc(CC(C(=O)O)n2cccc2)on1` (stereo not drawn) [Example 77, 3-{3-[2-(5-Methyl-2-phenyl-oxazol-4-yl)-ethoxy]-isoxazol-5-yl}-2-pyrrol-1-yl-propionic acid] is higher in melting point: 82 to 87 °C for the first, 143 to 144 °C for the second.

`Cc1oc(-c2ccccc2)nc1CCOc1ccc(CC(C)(C(=O)O)c2cccs2)cc1` (stereo not drawn) [Example 73, 2-Methyl-3-{4-[2-(5-methyl-2-phenyl-oxazol-4-yl)-ethoxy]-phenyl}-2-thiophen-2-yl-propionic acid] and `Cc1oc(-c2ccccc2)nc1CCOc1ccc(CC(C)(C(=O)O)c2ccsc2)cc1` (stereo not drawn) [Example 74, 2-Methyl-3-{4-[2-(5-methyl-2-phenyl-oxazol-4-yl)-ethoxy]-phenyl}-2-thiophen-3-yl-propionic acid] fall in the same range of melting point: 165 to 166 °C for the first, 165 to 166 °C for the second.

First: O=C(O)[C@H](Cc1ccc(CCCN2CCC(c3ccccc3)CC2)cc1)n1cccc1 [Example 131c, (S)-3-{4-[3-(4-Phenyl-piperidin-1-yl)-propyl]-phenyl}-2-pyrrol-1-yl-propionic acid]
Second: Cc1oc(-c2ccccc2)nc1CCOc1ccc(C[C@@](C)(C(=O)O)n2cccc2)cc1 [Example 52]
The melting point of the first is lower: 95 to 100 °C for the first, 149.5 to 150.5 °C for the second.

First: Cc1oc(-c2ccccc2)nc1CCOc1ccc(CC(F)(C(=O)O)c2ccccc2)cc1 (stereo not drawn) [Example 41, 2-Fluoro-3-{4-[2-(5-methyl-2-phenyl-oxazol-4-yl)-ethoxy]-phenyl}-2-phenyl-propionic acid]
Second: Cc1oc(-c2ccccc2)nc1CCOc1ccc(CC(C(=O)O)(n2cccc2)C(F)(F)F)cc1 (stereo not drawn) [Example 159, 3,3,3-Trifluoro-2-{4-[2-(5-methyl-2-phenyl-oxazol-4-yl)-ethoxy]-benzyl}-2-pyrrol-1-yl-propionic acid]
The melting point of the first is lower: 163 to 165 °C for the first, 201 to 203 °C for the second.

With `COc1ccc(C(Cc2ccc(OCCc3nc(-c4ccccc4)oc3C)cc2)C(=O)O)cc1` (stereo not drawn) [Example 37, 2-(4-Methoxy-phenyl)-3-{4-[2-(5-methyl-2-phenyl-oxazol-4-yl)-ethoxy]-phenyl}-propionic acid] the melting point was 114.7 to 116.6 °C.
